Reference: patent US20060069040A1, “GHB compositions” (priority 2004, published 2006)
Read-outs that look alike come from different tables or passages of the source.

Key:
[1] = test system: CD-1 male mice; experiment: Passivity test (sleep induction and sleep time); assay type: in vivo; settings: for Effect on GHB induced sleep time: 800 mg/kg i.p. of named compound followed immediately by GHB 800 mg/kg i.p.; for Effect on GHB sleep time: Example 6: 7.93 mmol/kg of named agent mixed in solution with GHB 7.93 mmol/kg, oral gavage, 8 mice; for GHB induced sleep time: n=6/group, GHB 800 mg/kg i.p. alone or immediately after 800 mg/kg i.p. of the named compound; for Passivity test scores (2-8): 10 minutes after injection, 6 non-fasting mice, 0-normal, 8-no struggle
Experimental: (§1) CD-1 male mice (30-40 g) were housed 3 to 4 per cage in the animal care facility on a 12 hour light dark cycle with free access to water and food for at least 1 week before testing.
The passivity test developed by Irwing was used to determine sleep time. After GHB administration, the mice were placed in an unusual position and a score of 2, 4, 6, or 8 was given when the mice ceased to struggle against respectively being suspended vertically, rotated horizontally onto their backs, suspended by their hind limbs or suspended by their forelimbs. Scores on the passivity test were determined every 10 minutes after GHB administration. […] The time between scores of 8 and 2 was defined as the total sleep time.
(§2) Statistical significance between control and treated groups at each time point in the present study was determined by student's t-test. Note that values of motor activity were expressed as a percentage of the baseline value which was normalized to 100%.
The optimal dose of GHB for inducing sleep was determined with the passivity test. GHB was dissolved in 0.9% NaCl and 1% Tween 80 and delivered intraperitoneally (i.p.) to 4 groups of 6 mice that had not been fasting. Each group received either 200 mg/kg, 400 mg/kg, 600 mg/kg and 800 mg/kg. […] For this reason, this dose was used in the initial exploratory studies.

[2] = test system: CD-1 male mice; assay type: in vivo; settings: for Effect on GHB induced motor inhibition: Example 3: named compound 800 mg/kg i.p. 2 or 15 minutes before GHB 800 mg/kg i.p.; for Effect on motor depression by oral GHB: Example 5: named compound 1200 mg/kg i.p. with GHB 1200 mg/kg orally
Experimental: as §1
The Rota-rod is a validated and sensitive tool that has been developed to document neurological deficits after pharmacological treatments. In this test, mice are placed on an accelerating Rota-rod whose revolutions per minute increase from 4 to 40 cycles per minute in about 4 minutes. The time it takes for the mice to fall off the rod is the end point of the test. Initially, the mice were given 3 practice runs on the rod to familiarize themselves with the test procedure. The time that mice remained on the rod was usually between five and ten minutes. A baseline measure was then made, the test drug given and the test procedure run every 20 minutes starting at time 0, immediately after drug administration. The mice were tested for 160 minutes after GHB administration although in some experiments recordings were made for as long as 280 minutes. Motor activity was expressed as a percentage of the baseline value. The time it took the mice to fall off the rod at a given time point after drug administration was divided by the time it took at baseline.
as §2

[3] = previous work (ref. 7); rats, tracer doses of GHB, intravenous infusion; cited from earlier work
[4] = man, GHB given orally; cited from earlier work
[5] = test system: male Wistar rats; experiment: EEG/EMG sleep recording after IP dosing; settings: for NR bout duration (NRBD): lights on
[6] = test system: male Wistar rats; experiment: Core body temperature (Tb) and locomotor activity (LMA) recording by implanted transmitter; assay type: in vivo; settings: IP dosing at ZT19, GHB 200 mg/kg in all drug conditions, comparators and ZT hours in the value
[7] = cited from earlier work
[8] = Table 2: i.p., all compounds 800 mg/kg, mice not fasting, n=6, 2′ or 15′ in label = preincubation before GHB
[9] = Table 3: oral, GHB 800 mg/kg, PA 66 mg/kg, mice fasting 12 hours, n=6
[10] = Table 4: GHB orally, GAL/GL/GA intraperitoneally, all 1200 mg/kg, mice fasting 1 hour, n=6
[11] = rats, IP dosing at ZT19, comparators and ZT hours in the value

Compound: O=C[C@H](O)[C@@H](O)[C@H](O)[C@H](O)C(=O)[O-].[Na+] [GCA, D-glucuronic acid sodium salt]
- Effect on GHB induced sleep time ([1]; non-fasting mice): did not show an increase in GHB induced sleep time
- Effect on GHB induced motor inhibition ([2]; mice not fasting): potentiated and prolonged the motor inhibition produced by GHB
- Effect on plasma half-life of GHB [3]: decreased the plasma half-life of GHB

Compound: O=C([O-])[C@@H](O)[C@@H](O)[C@H](O)[C@@H](O)CO.[Na+] [G, L-gulonic acid sodium salt]
- Effect on GHB sleep time [1]: almost doubled the sleep time
- Effect on motor inhibition produced by GHB ([2]; mouse, in vivo, po): significantly prolonged and deepened the motor inhibition produced by GHB
- Effect on motor performance on its own ([2]; mouse, in vivo, po): had no effect on motor performance
- Percent of motor activity after GHB administration, 0′ ([2]; mouse, in vivo, po): 168 ± 5%
- Percent of motor activity after GHB administration, 20′ ([2]; mouse, in vivo, po): 50 ± 24%
- Percent of motor activity after GHB administration, 40′ ([2]; mouse, in vivo, po): 303 ± 12%
- Percent of motor activity after GHB administration, 60′ ([2]; mouse, in vivo, po): 183 ± 4%
- Percent of motor activity after GHB administration, 80′ ([2]; mouse, in vivo, po): 156 ± 2%
- Percent of motor activity after GHB administration, 100′ ([2]; mouse, in vivo, po): 66 ± 9%
- Percent of motor activity after GHB administration, 160′ ([2]; mouse, in vivo, po): 126 ± 3%
- Percent of motor activity after GHB administration, 220′ ([2]; mouse, in vivo, po): 303 ± 23%
- Percent of motor activity after GHB administration, 280′ ([2]; mouse, in vivo, po): 141 ± 5%
- Effect on plasma half-life of GHB [3]: can extend the plasma half-life of GHB

Compound: O=C1O[C@H](CO)[C@@H](O)[C@H](O)[C@H]1O [GAL, D-gluconic acid lactone]
- Effect on GHB sleep time [1]: appeared to increase the sleep time
- GHB induced sleep time ([1]; non-fasting mice): 155 ± 11 min
- Effect on GHB induced motor inhibition ([2]; mice not fasting): most effectively potentiated GHB induced motor inhibition with significant effects at the 160 minute mark
- Effect on motor depression by oral GHB [2]: further significantly enhanced
- Effect on motor inhibition produced by GHB ([2]; Example 6: named agent 7.93 mmol/kg orally together with GHB 7.93 mmol/kg): neither oral gluconic acid lactone or gulonolactone augmented the depressant effects of GHB

Compound: O=C1O[C@H]([C@@H](O)CO)[C@H](O)[C@@H]1O [GL, L-gulono-γ-lactone]
- Effect on GHB sleep time [1]: appeared to increase the sleep time
- Effect on motor depression by oral GHB [2]: further significantly enhanced
- Effect on motor inhibition produced by GHB ([2]; mouse, in vivo, po): neither oral gluconic acid lactone or gulonolactone augmented the depressant effects of GHB

Compound: O=C([O-])[C@H](O)[C@@H](O)[C@H](O)[C@H](O)CO.[Na+] [GA, D-gluconic acid sodium salt]
- Effect on GHB induced sleep time ([1]; non-fasting mice): did not show an increase in GHB induced sleep time

Compound: O=C([O-])CCCO.[Na+] [GHB, gamma-hydroxybutyrate sodium salt]
- Passivity test scores (2-8) ([1]; GHB 200 mg/kg i.p.): 0
- Passivity test scores (2-8) ([1]; GHB 400 mg/kg i.p.): 2 ± 0.38
- Passivity test scores (2-8) ([1]; GHB 600 mg/kg i.p.): 4 ± 0.25
- Passivity test scores (2-8) ([1]; GHB 800 mg/kg i.p.): 8 ± 0.42
- Time to reliably induce sleep ([1]; GHB 800 mg/kg i.p., non-fasting mice): ≤ 10 min
- Sleep time ([1]; Table 5: orally, all compounds 7.93 mmol/kg, mice fasting 24 hours, n=8/group, mean ± S.E.M.): 35 ± 10 min
- GHB induced sleep time ([1]; non-fasting mice): 96.5 ± 5 min
- Plasma half-life [4]: about 45 minutes
- Seizure-like activity ([2]; GHB 1200 mg/kg orally, mice): appeared to induce seizure-like activity in many of the mice
- Percent of motor activity after GHB administration, 20′ [2, 8]: 0 ± 0%
- Percent of motor activity after GHB administration, 40′ [2, 8]: 0 ± 0%
- Percent of motor activity after GHB administration, 60′ [2, 8]: 0 ± 0%
- Percent of motor activity after GHB administration, 80′ [2, 8]: 20 ± 2%
- Percent of motor activity after GHB administration, 100′ [2, 8]: 35 ± 12%
- Percent of motor activity after GHB administration, 120′ [2, 8]: 65 ± 5%
- Percent of motor activity after GHB administration, 140′ [2, 8]: 113 ± 20%
- Percent of motor activity after GHB administration, 160′ [2, 8]: 124 ± 20%
- Percent of motor activity after GHB administration, 0′ ([2]; Table 2: i.p., all compounds 800 mg/kg, mice not fasting, n=6, 2′ or 15′ in label = preincubation before GHB, % of baseline, mean ± S.E.M.): 31 ± 7%
- Percent of motor activity after GHB administration (oral), 20′ [2, 9]: 0 ± 0%
- Percent of motor activity after GHB administration (oral), 40′ [2, 9]: 7 ± 3%
- Percent of motor activity after GHB administration (oral), 60′ [2, 9]: 12 ± 6%
- Percent of motor activity after GHB administration (oral), 80′ [2, 9]: 20 ± 8%
- Percent of motor activity after GHB administration (oral), 100′ [2, 9]: 26 ± 5%
- Percent of motor activity after GHB administration (oral), 160′ [2, 9]: 86 ± 1%
- Percent of motor activity after GHB administration (oral), 220′ [2, 9]: 90 ± 8%
- Percent of motor activity after GHB administration (oral), 280′ [2, 9]: 100 ± 7%
- Percent of motor activity after GHB administration, 20′ [2, 10]: 27 ± 19%
- Percent of motor activity after GHB administration, 40′ [2, 10]: 0 ± 0%
- Percent of motor activity after GHB administration, 60′ [2, 10]: 3 ± 2%
- Percent of motor activity after GHB administration, 80′ [2, 10]: 4 ± 1%
- Percent of motor activity after GHB administration, 100′ [2, 10]: 5 ± 4%
- Percent of motor activity after GHB administration, 160′ [2, 10]: 21 ± 10%
- Percent of motor activity after GHB administration, 220′ [2, 10]: 61 ± 12%
- Percent of motor activity after GHB administration, 0′ ([2]; Table 4: GHB orally, GAL/GL/GA intraperitoneally, all 1200 mg/kg, mice fasting 1 hour, n=6, mean ± S.E.M.): 58 ± 9%
- Duration of reproducible decrease in motor activity ([2]; mouse, in vivo): more than 100 minutes
- Percent of motor activity after GHB administration (oral), 0′ ([2]; mouse, in vivo): 51 ± 1%
- Percent of motor activity after GHB administration, 0′ ([2]; mouse, in vivo, po): 94 ± 9%
- Percent of motor activity after GHB administration, 20′ ([2]; mouse, in vivo, po): 2 ± 2%
- Percent of motor activity after GHB administration, 40′ ([2]; mouse, in vivo, po): 0 ± 0%
- Percent of motor activity after GHB administration, 60′ ([2]; mouse, in vivo, po): 4 ± 1%
- Percent of motor activity after GHB administration, 80′ ([2]; mouse, in vivo, po): 10 ± 2%
- Percent of motor activity after GHB administration, 100′ ([2]; mouse, in vivo, po): 22 ± 7%
- Percent of motor activity after GHB administration, 160′ ([2]; mouse, in vivo, po): 104 ± 26%
- Percent of motor activity after GHB administration, 220′ ([2]; mouse, in vivo, po): 122 ± 23%
- Percent of motor activity after GHB administration, 280′ ([2]; mouse, in vivo, po): 117 ± 13%
- Duration of depressed motor activity ([2]; oral GHB at 1200 mg/kg, mice): at least 220 minutes
- Rats that displayed SW activity ([5]; immediately following IP dosing, 8 rats): Seven of 8
- Spike and wave (SW) activity in the EEG ([5]; rats, IP dosing at ZT19, GHB 200 mg/kg in all drug conditions): elicited spike and wave activity (SW) in the EEG during the first hour following dosing
- Time spent awake (W), hourly [5, 11]: reduced W compared to vehicle during ZT 21
- Time spent in non-REM (NR) sleep, hourly [5, 11]: significantly greater than vehicle during ZT 21
- NR bout duration (NRBD) ([5]; rats, ZT 1 and 3): increased NRBD compared to GHB+L-gul (ZT 1, 3), GHB+PA (60 mg/kg) (ZT 1, 3) and GHB+PA (120 mg/kg) (ZT 3)
- NR bout duration (NRBD) ([5]; rats, ZT 5): significantly decreased NRBD during ZT 5 compared to GHB+L-gul and GHB+PA (120 mg/kg)
- Locomotor activity (LMA), hourly average [6]: significantly lower LMA compared to vehicle (ZT21)

Compound: O=C([O-])Cc1ccccc1.[Na+] [phenylacetate sodium salt]
- Solubility in saline [7]: can be readily dissolved in saline

Compound: O=C(O)Cc1ccccc1 [PA, phenylacetic acid]
- Effect on inhibitory effects of GHB on motor activity ([2]; Example 4: phenylacetic acid […] mg/kg mixed in solution with GHB 800 mg/kg, oral, vs GHB 800 mg/kg oral alone): significantly intensified and prolonged the inhibitory effects of GHB on motor activity
